ChEMBL document CHEMBL5634148, “Synthesis and evaluation of novel pleuromutilin derivatives targeting the 50S ribosomal subunit for antibacterial ability” (Eur J Med Chem, 2023)
≈ marks a conversion by molar mass, not a printed value.

How the values were obtained:
Streptococcus agalactiae = test: Antibacterial activity against Streptococcus agalactiae assessed as bacterial growth inhibition incubated for 18 to 24 hrs by NCCLS based assay; assay type: functional; conditions: time 18-24 hrs
Staphylococcus aureus [1] = test: Antibacterial activity against methicillin-resistant Staphylococcus aureus BNCC 337371 assessed as bacterial growth inhibition incubated for 18 to 24 hrs by NCCLS based assay; assay type: functional; conditions: time 18-24 hrs
Enterococcus faecalis = test: Antibacterial activity against Enterococcus faecalis assessed as bacterial growth inhibition incubated for 18 to 24 hrs by NCCLS based assay; assay type: functional; conditions: time 18-24 hrs
[2] = test system: Staphylococcus epidermidis; test: Antibacterial activity against methicillin-resistant Staphylococcus epidermidis ATCC 51625 assessed as bacterial growth inhibition incubated for 18 to 24 hrs by NCCLS based assay; assay type: functional; conditions: time 18-24 hrs
Escherichia coli = test: Antibacterial activity against Escherichia coli CICC 10389 assessed as bacterial growth inhibition incubated for 18 to 24 hrs by NCCLS based assay; assay type: functional; conditions: time 18-24 hrs
Pasteurella multocida = test: Antibacterial activity against Pasteurella multocida CVCC 1659 assessed as bacterial growth inhibition incubated for 18 to 24 hrs by NCCLS based assay; assay type: functional; conditions: time 18-24 hrs
Staphylococcus aureus [3] = test: Antibacterial activity against Staphylococcus aureus ATCC 25923 assessed as bacterial growth inhibition incubated for 18 to 24 hrs by NCCLS based assay; assay type: functional; conditions: time 18-24 hrs
Staphylococcus aureus [4] = test: Antibacterial activity against methicillin-resistant Staphylococcus aureus infected in neutropenic Balb/c mouse model assessed as reduction in bacterial load in lungs at 40 mg/kg, iv measured after 5 days; assay type: functional; conditions: time 5 day
Staphylococcus aureus [5] = test: Antibacterial activity against methicillin-resistant Staphylococcus aureus infected in neutropenic Balb/c mouse model assessed as reduction in bacterial load in lungs at 15 mg/kg, iv measured after 5 days; assay type: functional; conditions: time 5 day
[6] = Toxicity in neutropenic Balb/c mouse model infected with methicillin-resistant Staphylococcus aureus assessed as animal survival at 40 mg/kg, iv measured for 7 days; assay type: organism-based; conditions: in vivo, 168 h, time 7 day

## C=C[C@]1(C)C[C@@H](OC(=O)CSc2ncnc(N3CCCC3)n2)[C@]2(C)[C@H](C)CC[C@]3(CCC(=O)[C@H]32)[C@@H](C)[C@@H]1O
Streptococcus agalactiae
  MIC: 0.25 µg/mL (≈ 0.461 µM)
Staphylococcus aureus [1]
  MIC: 0.125 µg/mL (≈ 0.23 µM)
Enterococcus faecalis
  MIC: 32 µg/mL (≈ 59 µM)
[2]
  MIC: 0.25 µg/mL (≈ 0.461 µM)
Escherichia coli
  MIC: ≥ 64 µg/mL
Pasteurella multocida
  MIC: ≥ 64 µg/mL
Staphylococcus aureus [3]
  MIC: 0.125 µg/mL (≈ 0.23 µM)

## C=C[C@]1(C)C[C@@H](OC(=O)CSCCN(CC)CC)[C@]2(C)[C@H](C)CC[C@]3(CCC(=O)[C@H]32)[C@@H](C)[C@@H]1O [TIAMULIN]
Staphylococcus aureus [4]
  Activity: ~2 log10CFU/ml
Staphylococcus aureus [5]
  Activity: 1.24 log10CFU/ml
Streptococcus agalactiae
  MIC: 0.125 µg/mL (≈ 0.253 µM)
Staphylococcus aureus [1]
  MIC: 0.5 µg/mL (≈ 1.01 µM)
Enterococcus faecalis
  MIC: 16 µg/mL (≈ 32.4 µM)
[6]
  Activity: 50%
[2]
  MIC: 0.5 µg/mL (≈ 1.01 µM)
Escherichia coli
  MIC: ≥ 64 µg/mL
Pasteurella multocida
  MIC: ≥ 64 µg/mL
Staphylococcus aureus [3]
  MIC: 0.25 µg/mL (≈ 0.506 µM)

## C=C[C@]1(C)C[C@@H](OC(=O)CSc2ncnc(OC)n2)[C@]2(C)[C@H](C)CC[C@]3(CCC(=O)[C@H]32)[C@@H](C)[C@@H]1O
Streptococcus agalactiae
  MIC: 0.125 µg/mL (≈ 0.248 µM)
Staphylococcus aureus [1]
  MIC: 0.25 µg/mL (≈ 0.496 µM)
Enterococcus faecalis
  MIC: 32 µg/mL (≈ 63.5 µM)
[2]
  MIC: 0.25 µg/mL (≈ 0.496 µM)
Escherichia coli
  MIC: ≥ 64 µg/mL
Pasteurella multocida
  MIC: ≥ 64 µg/mL
Staphylococcus aureus [3]
  MIC: 0.125 µg/mL (≈ 0.248 µM)

## C=C[C@]1(C)C[C@@H](OC(=O)CSc2ncnc(N)n2)[C@]2(C)[C@H](C)CC[C@]3(CCC(=O)[C@H]32)[C@@H](C)[C@@H]1O
Streptococcus agalactiae
  MIC: 0.125 µg/mL (≈ 0.256 µM)
Staphylococcus aureus [1]
  MIC: 0.125 µg/mL (≈ 0.256 µM)
Enterococcus faecalis
  MIC: 16 µg/mL (≈ 32.7 µM)
[2]
  MIC: 0.25 µg/mL (≈ 0.512 µM)
Escherichia coli
  MIC: ≥ 64 µg/mL
Pasteurella multocida
  MIC: ≥ 64 µg/mL
Staphylococcus aureus [3]
  MIC: 0.125 µg/mL (≈ 0.256 µM)

## C=C[C@]1(C)C[C@@H](OC(=O)CSc2ncnc(N3CCNCC3)n2)[C@]2(C)[C@H](C)CC[C@]3(CCC(=O)[C@H]32)[C@@H](C)[C@@H]1O
Streptococcus agalactiae
  MIC: 0.25 µg/mL (≈ 0.448 µM)
Staphylococcus aureus [1]
  MIC: 2 µg/mL (≈ 3.59 µM)
Enterococcus faecalis
  MIC: ≥ 64 µg/mL
[2]
  MIC: 2 µg/mL (≈ 3.59 µM)
Escherichia coli
  MIC: ≥ 64 µg/mL
Pasteurella multocida
  MIC: ≥ 64 µg/mL
Staphylococcus aureus [3]
  MIC: 1 µg/mL (≈ 1.79 µM)

## C=C[C@]1(C)C[C@@H](OC(=O)CSc2ncnc(NCCNC)n2)[C@]2(C)[C@H](C)CC[C@]3(CCC(=O)[C@H]32)[C@@H](C)[C@@H]1O
Streptococcus agalactiae
  MIC: 0.013 µg/mL (≈ 0.0238 µM)
Staphylococcus aureus [1]
  MIC: 0.25 µg/mL (≈ 0.458 µM)
Enterococcus faecalis
  MIC: 32 µg/mL (≈ 58.6 µM)
[2]
  MIC: 0.25 µg/mL (≈ 0.458 µM)
Escherichia coli
  MIC: ≥ 64 µg/mL
Pasteurella multocida
  MIC: ≥ 64 µg/mL
Staphylococcus aureus [3]
  MIC: 0.063 µg/mL (≈ 0.115 µM)

## C=C[C@]1(C)C[C@@H](OC(=O)CSc2ncnc(OCC)n2)[C@]2(C)[C@H](C)CC[C@]3(CCC(=O)[C@H]32)[C@@H](C)[C@@H]1O
Streptococcus agalactiae
  MIC: 0.25 µg/mL (≈ 0.483 µM)
Staphylococcus aureus [1]
  MIC: 0.125 µg/mL (≈ 0.241 µM)
Enterococcus faecalis
  MIC: 32 µg/mL (≈ 61.8 µM)
[2]
  MIC: 0.25 µg/mL (≈ 0.483 µM)
Escherichia coli
  MIC: ≥ 64 µg/mL
Pasteurella multocida
  MIC: ≥ 64 µg/mL
Staphylococcus aureus [3]
  MIC: 0.125 µg/mL (≈ 0.241 µM)

## C=C[C@]1(C)C[C@@H](OC(=O)CSc2ncnc(NC)n2)[C@]2(C)[C@H](C)CC[C@]3(CCC(=O)[C@H]32)[C@@H](C)[C@@H]1O
Streptococcus agalactiae
  MIC: 0.125 µg/mL (≈ 0.249 µM)
Staphylococcus aureus [1]
  MIC: 0.25 µg/mL (≈ 0.497 µM)
Enterococcus faecalis
  MIC: 32 µg/mL (≈ 63.7 µM)
[2]
  MIC: 0.5 µg/mL (≈ 0.995 µM)
Escherichia coli
  MIC: ≥ 64 µg/mL
Pasteurella multocida
  MIC: ≥ 64 µg/mL
Staphylococcus aureus [3]
  MIC: 0.125 µg/mL (≈ 0.249 µM)

## C=C[C@]1(C)C[C@@H](OC(=O)CSc2ncnc(N3CCN(C)CC3)n2)[C@]2(C)[C@H](C)CC[C@]3(CCC(=O)[C@H]32)[C@@H](C)[C@@H]1O
Streptococcus agalactiae
  MIC: 4 µg/mL (≈ 7 µM)
Staphylococcus aureus [1]
  MIC: 0.125 µg/mL (≈ 0.219 µM)
Enterococcus faecalis
  MIC: ≥ 64 µg/mL
[2]
  MIC: 0.125 µg/mL (≈ 0.219 µM)
Escherichia coli
  MIC: ≥ 64 µg/mL
Pasteurella multocida
  MIC: ≥ 64 µg/mL
Staphylococcus aureus [3]
  MIC: 0.125 µg/mL (≈ 0.219 µM)

## C=C[C@]1(C)C[C@@H](OC(=O)CSc2ncnc(N(CC)CC)n2)[C@]2(C)[C@H](C)CC[C@]3(CCC(=O)[C@H]32)[C@@H](C)[C@@H]1O
Streptococcus agalactiae
  MIC: 0.25 µg/mL (≈ 0.459 µM)
Staphylococcus aureus [1]
  MIC: 0.25 µg/mL (≈ 0.459 µM)
Enterococcus faecalis
  MIC: ≥ 64 µg/mL
[2]
  MIC: 0.125 µg/mL (≈ 0.229 µM)
Escherichia coli
  MIC: ≥ 64 µg/mL
Pasteurella multocida
  MIC: ≥ 64 µg/mL
Staphylococcus aureus [3]
  MIC: 0.125 µg/mL (≈ 0.229 µM)

## C=C[C@]1(C)C[C@@H](OC(=O)CSc2ncnc(NCCN3CCOCC3)n2)[C@]2(C)[C@H](C)CC[C@]3(CCC(=O)[C@H]32)[C@@H](C)[C@@H]1O
Streptococcus agalactiae
  MIC: 0.125 µg/mL (≈ 0.208 µM)
Staphylococcus aureus [1]
  MIC: 0.125 µg/mL (≈ 0.208 µM)
Enterococcus faecalis
  MIC: 32 µg/mL (≈ 53.2 µM)
[2]
  MIC: 0.25 µg/mL (≈ 0.415 µM)
Escherichia coli
  MIC: ≥ 64 µg/mL
Pasteurella multocida
  MIC: ≥ 64 µg/mL
Staphylococcus aureus [3]
  MIC: 0.063 µg/mL (≈ 0.105 µM)
